From PMC9150124, “Design of a Potent, Selective, and Brain-Penetrant Inhibitor of Wnt-Deactivating Enzyme Notum by Optimization of a Crystallographic Fragment Hit” (Journal of Medicinal Chemistry, 2022)

Assays:
Experiment in all cases: SelectScreen kinase profiling, SSBK LanthaScreen Binding SP Technology
[1] = molecular target: kinase named in conditions (Homo sapiens, UniProt P10721, T670E); conditions: KIT T670E, 10 μM
Procedure: (§1) Kinase selectivity screening was performed by Thermo Fisher Scientific (Paisley, U.K.) in their SelectScreen Biochemical Kinase Profiling Service. Assay information and data are presented in the Supporting Information.
(§2) Kinase selectivity screening was performed by ThermoFisher Scientific (Paisley, U.K.) in their SelectScreenTM
(§3) Biochemical Kinase Profiling service .
(§4) Illustration reproduced courtesy of Cell Signaling technology, Inc.
(§5) (B) Illustration of phylogenetic tree of kinases screened.

[2] = molecular target: kinase named in conditions (Homo sapiens, UniProt P07949, V804M); conditions: RET V804M, 10 μM
Procedure: as §1, §2, §3, §4, §5

[3] = molecular target: kinase named in conditions (Homo sapiens, UniProt Q15569); conditions: TESK1, 10 μM
Procedure: as §1, §2, §3, §4, §5

[4] = molecular target: kinase named in conditions (Homo sapiens, UniProt P54646); conditions: 10 μM
Procedure: as §1, §2, §3, §4, §5

[5] = molecular target: kinase named in conditions (Homo sapiens, UniProt P52564); conditions: MAP2K6 (MKK6), 10 μM
Procedure: as §1, §2, §3, §4, §5

[6] = molecular target: kinase named in conditions (Homo sapiens, UniProt Q9HBH9); conditions: MKNK2 (MNK2), 10 μM
Procedure: as §1, §2, §3, §4, §5

[7] = molecular target: kinase named in conditions (Homo sapiens, UniProt Q9NRM7); conditions: LATS2, 10 μM
Procedure: as §1, §2, §3, §4, §5

[8] = molecular target: kinase named in conditions (Homo sapiens, UniProt Q14004); conditions: read-out: % Inhibition mean
Procedure: as §1, §2, §3, §4, §5

[9] = molecular target: kinase named in conditions (Homo sapiens, UniProt P10721, V654A); conditions: KIT V654A, 10 μM
Procedure: as §1, §2, §3, §4, §5

[10] = molecular target: kinase named in conditions (Homo sapiens, UniProt Q09013); conditions: DMPK, 10 μM
Procedure: as §1, §2, §3, §4, §5

[11] = molecular target: kinase named in conditions (Homo sapiens, UniProt Q92918); conditions: MAP4K1 (HPK1), 10 μM
Procedure: as §1, §2, §3, §4, §5

[12] = molecular target: kinase named in conditions (Homo sapiens, UniProt Q9Y2K2); conditions: SIK3, 10 μM
Procedure: as §1, §2, §3, §4, §5

[13] = molecular target: kinase named in conditions (Homo sapiens, UniProt P52564, S207E/T211E); conditions: MAP2K6 (MKK6) S207E T211E, 10 μM
Procedure: as §1, §2, §3, §4, §5

[14] = molecular target: kinase named in conditions (Homo sapiens, UniProt Q8NEV4); conditions: MYO3A (MYO3 alpha), 10 μM
Procedure: as §1, §2, §3, §4, §5

[15] = molecular target: kinase named in conditions (Homo sapiens, UniProt P06241); conditions: FYN A, 10 μM
Procedure: as §1, §2, §3, §4, §5

[16] = molecular target: kinase named in conditions (Homo sapiens, UniProt P00519, H396P); conditions: ABL1 H396P, 10 μM
Procedure: as §1, §2, §3, §4, §5

[17] = molecular target: kinase named in conditions (Homo sapiens, UniProt P36897); conditions: TGFBR1 (ALK5), 10 μM
Procedure: as §1, §2, §3, §4, §5

[18] = molecular target: kinase named in conditions (Homo sapiens, UniProt Q96S53); conditions: TESK2, 10 μM
Procedure: as §1, §2, §3, §4, §5

[19] = molecular target: kinase named in conditions (Homo sapiens, UniProt Q16513); conditions: PKN2 (PRK2), 10 μM
Procedure: as §1, §2, §3, §4, §5

[20] = molecular target: kinase named in conditions (Homo sapiens, UniProt Q02779); conditions: MAP3K10 (MLK2), 10 μM
Procedure: as §1, §2, §3, §4, §5

[21] = molecular target: kinase named in conditions (Homo sapiens, UniProt Q02750); conditions: MAP2K1 (MEK1), 10 μM
Procedure: as §1, §2, §3, §4, §5

[22] = molecular target: kinase named in conditions (Homo sapiens, UniProt Q8N5S9); conditions: CAMKK1 (CAMKKA), 10 μM
Procedure: as §1, §2, §3, §4, §5

[23] = molecular target: kinase named in conditions (Homo sapiens, UniProt P45983); conditions: MAPK8 (JNK1), 10 μM
Procedure: as §1, §2, §3, §4, §5

[24] = molecular target: kinase named in conditions (Homo sapiens, UniProt Q9BYT3); conditions: STK33, 10 μM
Procedure: as §1, §2, §3, §4, §5

[25] = molecular target: kinase named in conditions (Homo sapiens, UniProt O94921); conditions: CDK14 (PFTK1)/cyclin Y, 10 μM
Procedure: as §1, §2, §3, §4, §5

[26] = molecular target: kinase named in conditions (Homo sapiens, UniProt P15056); conditions: BRAF, 10 μM
Procedure: as §1, §2, §3, §4, §5

[27] = molecular target: kinase named in conditions (Homo sapiens, UniProt P22607, K650M); conditions: FGFR3 K650M, 10 μM
Procedure: as §1, §2, §3, §4, §5

[28] = molecular target: kinase named in conditions (Homo sapiens, UniProt Q9BWU1); conditions: 10 μM
Procedure: as §1, §2, §3, §4, §5

[29] = molecular target: kinase named in conditions (Homo sapiens, UniProt P50750); conditions: 10 μM
Procedure: as §1, §2, §3, §4, §5

[30] = molecular target: kinase named in conditions (Homo sapiens, UniProt Q92630); conditions: DYRK2, 10 μM
Procedure: as §1, §2, §3, §4, §5

[31] = molecular target: kinase named in conditions (Homo sapiens, UniProt Q8IYT8); conditions: ULK2, 10 μM
Procedure: as §1, §2, §3, §4, §5

[32] = molecular target: kinase named in conditions (Homo sapiens, UniProt P15056, V600E); conditions: BRAF V599E, 10 μM
Procedure: as §1, §2, §3, §4, §5

[33] = molecular target: kinase named in conditions (Homo sapiens, UniProt P10721, D816H); conditions: KIT D816H, 10 μM
Procedure: as §1, §2, §3, §4, §5

Chain of kinase named in conditions (Homo sapiens, UniProt Q9BWU1) (Q9BWU1 whole entry): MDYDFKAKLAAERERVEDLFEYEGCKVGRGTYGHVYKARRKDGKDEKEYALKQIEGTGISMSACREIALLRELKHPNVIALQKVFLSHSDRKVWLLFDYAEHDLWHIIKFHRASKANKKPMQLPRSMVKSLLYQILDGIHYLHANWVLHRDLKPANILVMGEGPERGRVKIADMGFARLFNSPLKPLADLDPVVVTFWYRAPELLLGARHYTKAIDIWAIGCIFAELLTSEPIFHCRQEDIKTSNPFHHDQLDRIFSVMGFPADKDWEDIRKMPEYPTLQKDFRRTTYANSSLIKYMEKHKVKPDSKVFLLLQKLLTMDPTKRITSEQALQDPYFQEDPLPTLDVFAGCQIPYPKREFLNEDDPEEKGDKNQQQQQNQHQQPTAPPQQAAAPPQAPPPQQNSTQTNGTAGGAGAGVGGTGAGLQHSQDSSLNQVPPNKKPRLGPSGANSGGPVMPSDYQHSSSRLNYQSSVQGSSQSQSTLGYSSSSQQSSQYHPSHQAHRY
Chain of kinase named in conditions (Homo sapiens, UniProt P54646) (P54646 whole entry): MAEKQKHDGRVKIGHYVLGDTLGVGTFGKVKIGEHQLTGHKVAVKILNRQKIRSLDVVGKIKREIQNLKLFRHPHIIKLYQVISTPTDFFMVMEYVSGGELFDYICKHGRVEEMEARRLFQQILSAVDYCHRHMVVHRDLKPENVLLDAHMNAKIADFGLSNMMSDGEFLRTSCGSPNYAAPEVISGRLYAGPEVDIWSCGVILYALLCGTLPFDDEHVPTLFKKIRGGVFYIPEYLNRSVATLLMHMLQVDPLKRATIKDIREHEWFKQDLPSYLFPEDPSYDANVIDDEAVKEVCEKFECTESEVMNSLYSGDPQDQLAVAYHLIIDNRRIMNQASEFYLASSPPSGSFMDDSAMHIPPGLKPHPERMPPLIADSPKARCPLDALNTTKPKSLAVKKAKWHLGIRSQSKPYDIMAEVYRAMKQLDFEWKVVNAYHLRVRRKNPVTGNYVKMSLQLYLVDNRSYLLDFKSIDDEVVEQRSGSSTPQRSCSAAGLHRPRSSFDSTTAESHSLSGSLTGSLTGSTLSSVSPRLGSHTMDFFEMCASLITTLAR
Chain of kinase named in conditions (Homo sapiens, UniProt P50750) (P50750 whole entry): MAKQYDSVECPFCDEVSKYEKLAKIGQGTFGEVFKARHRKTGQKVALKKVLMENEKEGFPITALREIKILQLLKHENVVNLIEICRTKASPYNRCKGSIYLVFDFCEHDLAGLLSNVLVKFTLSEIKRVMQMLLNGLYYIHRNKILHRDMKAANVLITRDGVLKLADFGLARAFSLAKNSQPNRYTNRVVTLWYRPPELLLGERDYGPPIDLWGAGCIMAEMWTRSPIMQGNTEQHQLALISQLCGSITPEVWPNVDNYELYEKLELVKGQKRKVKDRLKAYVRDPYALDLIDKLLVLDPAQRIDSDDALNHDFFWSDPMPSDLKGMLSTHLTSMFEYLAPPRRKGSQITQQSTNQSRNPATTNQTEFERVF
Chain of kinase named in conditions (Homo sapiens, UniProt Q92630) (Q92630 whole entry): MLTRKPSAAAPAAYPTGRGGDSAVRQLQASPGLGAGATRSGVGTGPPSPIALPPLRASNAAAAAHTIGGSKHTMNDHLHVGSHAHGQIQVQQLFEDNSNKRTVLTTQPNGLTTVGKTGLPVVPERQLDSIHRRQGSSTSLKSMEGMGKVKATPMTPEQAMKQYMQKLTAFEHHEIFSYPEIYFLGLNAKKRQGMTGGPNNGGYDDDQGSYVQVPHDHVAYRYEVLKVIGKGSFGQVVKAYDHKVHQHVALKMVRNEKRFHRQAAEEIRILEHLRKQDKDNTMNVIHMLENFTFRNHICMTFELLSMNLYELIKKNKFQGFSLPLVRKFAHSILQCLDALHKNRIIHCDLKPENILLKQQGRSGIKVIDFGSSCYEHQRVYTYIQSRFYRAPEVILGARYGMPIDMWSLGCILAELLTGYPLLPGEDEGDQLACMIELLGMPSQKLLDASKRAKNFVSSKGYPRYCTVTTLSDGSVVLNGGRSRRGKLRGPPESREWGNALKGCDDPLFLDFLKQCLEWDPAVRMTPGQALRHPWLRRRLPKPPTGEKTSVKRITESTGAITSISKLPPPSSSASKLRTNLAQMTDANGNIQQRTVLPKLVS
Chain of kinase named in conditions (Homo sapiens, UniProt Q9HBH9) (Q9HBH9 whole entry): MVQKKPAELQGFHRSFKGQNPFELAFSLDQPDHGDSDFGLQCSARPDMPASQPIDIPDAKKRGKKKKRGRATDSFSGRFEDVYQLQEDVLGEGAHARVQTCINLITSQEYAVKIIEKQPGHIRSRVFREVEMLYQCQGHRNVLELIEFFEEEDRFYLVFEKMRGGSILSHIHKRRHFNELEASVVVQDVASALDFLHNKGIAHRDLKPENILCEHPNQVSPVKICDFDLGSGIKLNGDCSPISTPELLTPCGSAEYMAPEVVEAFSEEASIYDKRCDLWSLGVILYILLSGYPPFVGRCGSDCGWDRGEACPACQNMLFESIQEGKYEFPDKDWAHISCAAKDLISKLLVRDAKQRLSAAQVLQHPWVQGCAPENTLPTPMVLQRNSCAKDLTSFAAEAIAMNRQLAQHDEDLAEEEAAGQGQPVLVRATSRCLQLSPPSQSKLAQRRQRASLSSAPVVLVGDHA
Chain of kinase named in conditions (Homo sapiens, UniProt P10721, T670E) (P10721 26-976 T670E): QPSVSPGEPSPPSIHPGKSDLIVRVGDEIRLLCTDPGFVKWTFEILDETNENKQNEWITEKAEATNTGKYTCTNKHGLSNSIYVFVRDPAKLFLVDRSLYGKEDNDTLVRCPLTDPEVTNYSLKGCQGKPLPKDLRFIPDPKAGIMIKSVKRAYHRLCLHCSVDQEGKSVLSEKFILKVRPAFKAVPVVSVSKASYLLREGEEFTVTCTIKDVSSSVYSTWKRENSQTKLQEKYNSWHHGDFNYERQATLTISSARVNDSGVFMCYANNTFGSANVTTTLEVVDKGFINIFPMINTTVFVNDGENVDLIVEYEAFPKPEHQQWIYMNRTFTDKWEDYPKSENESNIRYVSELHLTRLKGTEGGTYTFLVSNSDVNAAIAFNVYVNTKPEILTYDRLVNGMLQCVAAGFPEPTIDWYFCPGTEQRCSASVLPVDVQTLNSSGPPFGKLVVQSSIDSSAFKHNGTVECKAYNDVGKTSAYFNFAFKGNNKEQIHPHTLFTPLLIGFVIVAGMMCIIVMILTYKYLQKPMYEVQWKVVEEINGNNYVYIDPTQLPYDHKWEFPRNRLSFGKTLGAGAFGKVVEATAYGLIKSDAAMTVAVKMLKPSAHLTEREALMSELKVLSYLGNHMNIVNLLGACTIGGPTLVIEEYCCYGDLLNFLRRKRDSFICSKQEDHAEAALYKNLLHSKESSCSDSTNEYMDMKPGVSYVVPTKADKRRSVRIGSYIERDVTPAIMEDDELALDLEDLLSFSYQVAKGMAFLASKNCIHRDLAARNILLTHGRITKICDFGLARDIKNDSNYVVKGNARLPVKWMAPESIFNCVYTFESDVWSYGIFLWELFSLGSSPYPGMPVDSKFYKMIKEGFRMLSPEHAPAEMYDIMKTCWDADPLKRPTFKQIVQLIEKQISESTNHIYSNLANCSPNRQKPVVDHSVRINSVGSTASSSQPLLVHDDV
Chain of kinase named in conditions (Homo sapiens, UniProt Q14004) (Q14004 whole entry): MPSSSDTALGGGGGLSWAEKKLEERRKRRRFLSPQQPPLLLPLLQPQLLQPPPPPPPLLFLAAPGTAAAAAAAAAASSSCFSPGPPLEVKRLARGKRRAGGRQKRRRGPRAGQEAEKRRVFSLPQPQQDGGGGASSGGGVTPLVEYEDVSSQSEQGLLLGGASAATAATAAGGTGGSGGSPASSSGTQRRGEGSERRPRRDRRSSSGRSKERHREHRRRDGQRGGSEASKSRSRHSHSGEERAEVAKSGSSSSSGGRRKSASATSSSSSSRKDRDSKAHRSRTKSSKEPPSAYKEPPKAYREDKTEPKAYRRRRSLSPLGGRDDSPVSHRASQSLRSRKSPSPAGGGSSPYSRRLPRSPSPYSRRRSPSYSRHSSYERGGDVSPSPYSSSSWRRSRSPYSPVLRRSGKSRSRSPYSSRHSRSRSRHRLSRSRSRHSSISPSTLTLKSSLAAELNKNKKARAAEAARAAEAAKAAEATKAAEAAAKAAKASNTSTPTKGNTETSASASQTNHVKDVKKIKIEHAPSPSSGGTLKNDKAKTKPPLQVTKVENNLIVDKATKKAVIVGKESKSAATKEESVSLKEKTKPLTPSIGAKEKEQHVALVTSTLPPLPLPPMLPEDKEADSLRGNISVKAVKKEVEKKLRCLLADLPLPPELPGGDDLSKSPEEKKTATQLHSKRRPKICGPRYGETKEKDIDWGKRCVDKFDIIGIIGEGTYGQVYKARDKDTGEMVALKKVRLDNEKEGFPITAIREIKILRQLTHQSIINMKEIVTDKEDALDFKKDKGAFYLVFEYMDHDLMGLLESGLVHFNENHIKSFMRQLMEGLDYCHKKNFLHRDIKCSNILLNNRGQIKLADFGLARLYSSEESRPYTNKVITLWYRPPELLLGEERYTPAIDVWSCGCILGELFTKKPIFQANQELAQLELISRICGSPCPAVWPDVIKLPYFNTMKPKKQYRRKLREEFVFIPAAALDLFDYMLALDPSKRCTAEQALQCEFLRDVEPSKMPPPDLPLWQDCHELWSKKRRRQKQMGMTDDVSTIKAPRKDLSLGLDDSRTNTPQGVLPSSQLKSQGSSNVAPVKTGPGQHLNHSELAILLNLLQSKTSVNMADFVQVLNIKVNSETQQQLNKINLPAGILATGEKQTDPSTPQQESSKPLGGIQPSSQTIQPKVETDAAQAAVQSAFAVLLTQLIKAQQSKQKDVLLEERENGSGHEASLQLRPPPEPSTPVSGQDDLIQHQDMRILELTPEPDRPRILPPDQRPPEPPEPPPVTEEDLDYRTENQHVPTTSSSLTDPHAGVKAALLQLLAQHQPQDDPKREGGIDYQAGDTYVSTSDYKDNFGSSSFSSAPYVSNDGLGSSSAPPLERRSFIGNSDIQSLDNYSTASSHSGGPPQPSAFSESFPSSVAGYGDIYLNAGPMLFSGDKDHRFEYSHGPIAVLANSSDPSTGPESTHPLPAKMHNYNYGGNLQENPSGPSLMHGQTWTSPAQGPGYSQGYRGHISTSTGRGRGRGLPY

`FC(F)(F)c1c(Cl)ccc(-n2ccnn2)c1Cl` [8l, 1-(2,4-Dichloro-3-(trifluoromethyl)phenyl)-1H-1,2,3-triazole] was tested, and the inhibition at 10 µM [1] was 1%, the inhibition at 10 µM [2] was 8% and the inhibition at 10 µM [3] was 7%. The inhibition at 10 µM ([4]; AMPK (A2/B2/G1)) was 12%, the inhibition at 10 µM ([4]; AMPK (A2/B2/G2)) was 24% and the inhibition at 10 µM [5] was 2%. It also gave an inhibition at 10 µM [6] of 3%, an inhibition at 10 µM [7] of 7% and an inhibition at 10 µM [8] of 38%. It also gave an inhibition at 10 µM [9] of 14%, an inhibition at 10 µM [10] of 2% and an inhibition at 10 µM [11] of 15%. It also gave an inhibition at 10 µM [12] of 4%, an inhibition at 10 µM [13] of 11% and an inhibition at 10 µM [14] of -6%. For the same compound, the inhibition at 10 µM [15] was -8%, the inhibition at 10 µM [16] was 7% and the inhibition at 10 µM [17] was -1%. For the same compound, the inhibition at 10 µM [18] was 6%, the inhibition at 10 µM [19] was -4% and the inhibition at 10 µM [20] was 1%. The inhibition at 10 µM [21] was 26%, the inhibition at 10 µM [22] was -3% and the inhibition at 10 µM [23] was -9%. The inhibition at 10 µM [24] was 6%, the inhibition at 10 µM [25] was 43% and the inhibition at 10 µM [26] was 7%. For the same compound, the inhibition at 10 µM [27] was 2%, the inhibition at 10 µM ([28]; CDK11 (Inactive)) was 12% and the inhibition at 10 µM ([28]; CDK11/cyclin C) was 23%. For the same compound, the inhibition at 10 µM ([29]; CDK9 (Inactive)) was -5%, the inhibition at 10 µM ([29]; CDK9/cyclin K) was -10% and the inhibition at 10 µM [30] was -1%. For the same compound, the inhibition at 10 µM [31] was 8%, the inhibition at 10 µM [32] was 0% and the inhibition at 10 µM [33] was -2%.
